One series is described as follows: in vitro. The note with it: human, CC50. The text has this: (§1) Inspired by our previous research on heteroaromatic-biphenyl-DAPYs[15], the 4-cyanophenyl group on the biphenyl moiety was replaced with a privileged 4-pyridyl group for further evaluation.
The test system of the next series is HIV-1 (IIIB). Kind of series: microbe, parasite or virus in culture. To be noted: for EC50: Human immunodeficiency virus 1, IIIB, MT4, WT HIV-1, protection of MT-4 cells against HIV-induced cytopathogenicity, mean ± SD, n ≥ 3; for SI (IIIB): selectivity index, ratio CC50/EC50. Format: cell-based.
Source text: as §1
(Damage to the host cells serves as the signal in cytopathic effect assays.)

The values that follow come from paper PMC12399242 (Acta Pharmaceutica Sinica. B, 2025).

A value given as a limit tells only on which side of the number the result lay.

The EC50 is the concentration giving half of the maximal effect.

In the series “in vitro”, `N#Cc1ccc(Nc2ncc(F)c(Nc3ccc(-c4ccncc4)cc3Cl)n2)cc1` [A20, 4-((4-((2-Chloro-4-(pyridin-4-yl)phenyl)amino)-5-fluoropyrimidin-2-yl)amino)benzonitrile] displayed a CC50 of over 48 µM. In addition, in the series on HIV-1 (IIIB), the EC50 was determined as 0.01 ± 0.0017 µM and the “SI (IIIB)” value is listed as over 4819.
In turn, `Cc1cc(-c2ccncc2)ccc1Oc1nc(Nc2ccc(C#N)cc2)ncc1F` [A15, 4-((5-Fluoro-4-(2-methyl-4-(pyridin-4-yl)phenoxy)pyrimidin-2-yl)amino)benzonitrile] came in with a CC50 in “in vitro” of over 50 µM. Further, in the series on HIV-1 (IIIB), the concentration giving a half-maximal response (EC50) amounted to 0.011 ± 0.0025 µM and the “SI (IIIB)” value was over 4734.
`COc1cc(-c2ccncc2)ccc1Nc1nc(Nc2ccc(C#N)cc2)ncc1F` [A22, 4-((5-Fluoro-4-((2-methoxy-4-(pyridin-4-yl)phenyl)amino)pyrimidin-2-yl)amino)benzonitrile] gave a CC50 in the series “in vitro” of over 49 µM. In the series with HIV-1 (IIIB), it took 0.008 ± 0.0027 µM to reach a half-maximal effect (EC50) and the “SI (IIIB)” value is on record as over 6154.
In the same order, the values of `N#Cc1ccc(Nc2ncc(Cl)c(Nc3ccc(-c4ccncc4)cc3F)n2)cc1` [B17, 4-((5-Chloro-4-((2-fluoro-4-(pyridin-4-yl)phenyl)amino)pyrimidin-2-yl)amino)benzonitrile] are over 48 µM, 0.142 ± 0.014 µM and over 342.
On to `Cc1cc(-c2ccncc2)ccc1Nc1nc(Nc2ccc(C#N)cc2)ncc1F` [A21, 4-((5-Fluoro-4-((2-methyl-4-(pyridin-4-yl)phenyl)amino)pyrimidin-2-yl)amino)benzonitrile], for which the CC50 in the series “in vitro” was over 51 µM. Besides, in the series on HIV-1 (IIIB), it took 0.0061 ± 0.0013 µM to reach a half-maximal effect (EC50) and the “SI (IIIB)” value was over 8421.
For `Cc1cc(-c2ccc(C#N)cc2)cc(C)c1Oc1nc(Nc2ccc(C#N)cc2)ncc1Cl` [B5, 4′-((5-Chloro-2-((4-cyanophenyl)amino)pyrimidin-4-yl)oxy)-3′,5′-dimethyl-[1,1′-biphenyl]-4-carbonitrile], in that order: 39 ± 9.1 µM, 0.011 ± 0.0042 µM and 3478.
As for `N#Cc1ccc(Nc2ncc(Cl)c(Oc3ccc(-c4ccncc4)cc3Cl)n2)cc1` [B13, 4-((5-Chloro-4-(2-chloro-4-(pyridin-4-yl)phenoxy)pyrimidin-2-yl)amino)benzonitrile], the CC50 in the series “in vitro” was over 46 µM. In addition, in the series with HIV-1 (IIIB), it took 0.0062 ± 0.0016 µM to reach a half-maximal effect (EC50) and the “SI (IIIB)” value is given as over 7477.
As for `N#Cc1ccc(Nc2ncc(Cl)c(Oc3ccc(-c4ccc(C#N)cc4)cc3Cl)n2)cc1` [B2, 3′-Chloro-4′-((5-chloro-2-((4-cyanophenyl)amino)pyrimidin-4-yl)oxy)-[1,1′-biphenyl]-4-carbonitrile], in the series “in vitro”, the CC50 is 35 ± 7.3 µM. Besides, in the series with HIV-1 (IIIB), the midpoint of the response, the EC50, lay at 0.0087 ± 0.002 µM and the “SI (IIIB)” value was found to be 3949.
For `N#Cc1ccc(Nc2ncc(Cl)c(Nc3ccc(-c4ccncc4)cc3Cl)n2)cc1` [B18, 4-((5-Chloro-4-((2-chloro-4-(pyridin-4-yl)phenyl)amino)pyrimidin-2-yl)amino)benzonitrile], in that order: over 46 µM, 0.083 ± 0.069 µM and over 563.
For the molecule `Cc1cc(-c2ccncc2)cc(C)c1Oc1nc(Nc2ccc(C#N)cc2)ncc1Cl` [B16, 4-((5-Chloro-4-(2,6-dimethyl-4-(pyridin-4-yl)phenoxy)pyrimidin-2-yl)amino)benzonitrile], in “in vitro”, the CC50 amounted to 243 ± 62 µM. In addition, in the series on HIV-1 (IIIB), the EC50 was found to be 0.105 ± 0.051 µM and the “SI (IIIB)” value is on record as 2327.
The molecule `N#Cc1ccc(Nc2ncc(F)c(Oc3c(F)cc(-c4ccncc4)cc3F)n2)cc1` [A17, 4-((4-(2,6-Difluoro-4-(pyridin-4-yl)phenoxy)-5-fluoropyrimidin-2 yl)amino)benzonitrile] had a CC50 in “in vitro” of over 48 µM. Besides, in the series on HIV-1 (IIIB), the concentration for a half-maximal effect (EC50) turned out to be 0.011 ± 0.0041 µM and the “SI (IIIB)” value is over 4396.
The molecule `Cc1cc(-c2ccc(C#N)cc2)ccc1Oc1nc(Nc2ccc(C#N)cc2)ncc1F` [A3, 4′-((2-((4-Cyanophenyl)amino)-5-fluoropyrimidin-4-yl)oxy)-3′-methyl-[1,1′-biphenyl]-4-carbonitrile] registered a CC50 in the series “in vitro” of over 48 µM. For the same molecule, in the series with HIV-1 (IIIB), the EC50 worked out at 0.0076 ± 0.0026 µM and the “SI (IIIB)” value was over 6349.
For `N#Cc1ccc(Nc2ncc(Cl)c(Oc3ccc(-c4ccncc4)cc3F)n2)cc1` [B12, 4-((5-Chloro-4-(2-fluoro-4-(pyridin-4-yl)phenoxy)pyrimidin-2-yl)amino)benzonitrile], in that order: over 48 µM, 0.0077 ± 0.0019 µM and over 6173.
In the same order, the values of `COc1cc(-c2ccncc2)ccc1Nc1nc(Nc2ccc(C#N)cc2)ncc1Cl` [B20, 4-((5-Chloro-4-((2-methoxy-4-(pyridin-4-yl)phenyl)amino)pyrimidin-2-yl)amino)benzonitrile] are 164 ± 51 µM, 0.536 ± 0.326 µM and 306.
In the same order, the values of `Cc1cc(-c2ccncc2)ccc1Oc1nc(Nc2ccc(C#N)cc2)ncc1Cl` [B14, 4-((5-Chloro-4-(2-methyl-4-(pyridin-4-yl)phenoxy)pyrimidin-2-yl)amino)benzonitrile] are over 48 µM, 0.048 ± 0.022 µM and over 1005.
Take `Cc1cc(-c2ccc(C#N)cc2)cc(C)c1Oc1nc(Nc2ccc(C#N)cc2)ncc1F` [A6, 4′-((2-((4-Cyanophenyl)amino)-5-fluoropyrimidin-4-yl)oxy)-3′,5′-dimethyl-[1,1′-biphenyl]-4-carbonitrile]: the CC50 in the series “in vitro” amounted to 219 ± 12 µM. In the series on HIV-1 (IIIB), the response was half-maximal at 0.0071 ± 0.0032 µM (EC50) and the “SI (IIIB)” value was 30,805.
In turn, `N#Cc1ccc(Nc2ncc(Cl)c(Nc3ccc(-c4ccc(C#N)cc4)cc3Cl)n2)cc1` [B7, 3′-Chloro-4′-((5-chloro-2-((4-cyanophenyl)amino)pyrimidin-4-yl)amino)-[1,1′-biphenyl]-4-carbonitrile] showed a CC50 in the series “in vitro” of over 273 µM. For the same molecule, in the series with HIV-1 (IIIB), the midpoint of the response, the EC50, lay at 0.046 ± 0.013 µM and the “SI (IIIB)” value is given as over 6026.
In the same order, the values of `Cc1cc(-c2ccc(C#N)cc2)ccc1Oc1nc(Nc2ccc(C#N)cc2)ncc1Cl` [B3, 4′-((5-Chloro-2-((4-cyanophenyl)amino)pyrimidin-4-yl)oxy)-3′-methyl-[1,1′-biphenyl]-4-carbonitrile] are over 46 µM, 0.0071 ± 0.0016 µM and over 6542.
In turn, `N#Cc1ccc(Nc2ncc(F)c(Oc3c(F)cc(-c4ccc(C#N)cc4)cc3F)n2)cc1` [A5, 4′-((2-((4-Cyanophenyl)amino)-5-fluoropyrimidin-4-yl)oxy)-3′,5′-difluoro-[1,1′-biphenyl]-4-carbonitrile] returned a CC50 in the series “in vitro” of over 45 µM. Further, in the series on HIV-1 (IIIB), the concentration for a half-maximal effect (EC50) is 0.0063 ± 0.0032 µM and the “SI (IIIB)” value was over 7143.
In the series “in vitro”, `N#Cc1ccc(Nc2ncc(F)c(Oc3ccc(-c4ccc(C#N)cc4)cc3Cl)n2)cc1` [A2, 3′-Chloro-4′-((2-((4-cyanophenyl)amino)-5-fluoropyrimidin-4-yl)oxy)-[1,1′-biphenyl]-4-carbonitrile] gave a CC50 of over 45 µM. Further, in the series on HIV-1 (IIIB), the response was half-maximal at 0.027 ± 0.025 µM (EC50) and the “SI (IIIB)” value was over 1670.
In the same order, the values of `N#Cc1ccc(Nc2ncc(F)c(Nc3ccc(-c4ccc(C#N)cc4)cc3Cl)n2)cc1` [A8, 3′-Chloro-4′-((2-((4-cyanophenyl)amino)-5-fluoropyrimidin-4-yl)amino)-[1,1′-biphenyl]-4-carbonitrile] are over 45 µM, 0.043 ± 0.023 µM and over 1038.
For `N#Cc1ccc(Nc2ncc(F)c(Oc3ccc(-c4ccncc4)cc3F)n2)cc1` [A13, 4-((5-Fluoro-4-(2-fluoro-4-(pyridin-4-yl)phenoxy)pyrimidin-2-yl)amino)benzonitrile], in that order: over 50 µM, 0.0097 ± 0.0037 µM and over 5147.
In the same order, the values of `Cc1cc(-c2ccc(C#N)cc2)ccc1Nc1nc(Nc2ccc(C#N)cc2)ncc1Cl` [B8, 4′-((5-Chloro-2-((4-cyanophenyl)amino)pyrimidin-4-yl)amino)-3′-methyl-[1,1′-biphenyl]-4-carbonitrile] are over 46 µM, 0.0082 ± 0.0016 µM and over 5556.
On to `Cc1cc(-c2ccncc2)cc(C)c1Oc1nc(Nc2ccc(C#N)cc2)ncc1F` [A18, 4-((4-(2,6-Dimethyl-4-(pyridin-4-yl)phenoxy)-5-fluoropyrimidin-2-yl)amino)benzonitrile], for which, in the series “in vitro”, the CC50 is over 49 µM. For the same molecule, in the series on HIV-1 (IIIB), the concentration for a half-maximal effect (EC50) is 0.056 ± 0.044 µM and the “SI (IIIB)” value was over 868.
`COc1cc(-c2ccc(C#N)cc2)ccc1Nc1nc(Nc2ccc(C#N)cc2)ncc1Cl` [B9, 4′-((5-Chloro-2-((4-cyanophenyl)amino)pyrimidin-4-yl)amino)-3′-methoxy-[1,1′-biphenyl]-4-carbonitrile] yielded a CC50 in the series “in vitro” of 236 ± 24 µM. In the series on HIV-1 (IIIB), the half-maximal effective concentration (EC50) turned out to be 0.104 ± 0.068 µM and the “SI (IIIB)” value stood at 2261.
In the case of `COc1cc(-c2ccc(C#N)cc2)ccc1Nc1nc(Nc2ccc(C#N)cc2)ncc1F` [A10, 4′-((2-((4-Cyanophenyl)amino)-5-fluoropyrimidin-4-yl)amino)-3′-methoxy-[1,1′-biphenyl]-4-carbonitrile], the CC50 in “in vitro” was over 46 µM. Besides, in the series with HIV-1 (IIIB), the 50% effective concentration (EC50) was found to be 0.023 ± 0.018 µM and the “SI (IIIB)” value was over 1961.
For `Cc1cc(-c2ccncc2)cc(C)c1Nc1nc(Nc2ccc(C#N)cc2)ncc1Cl` [B22, 4-((5-Chloro-4-((2,6-dimethyl-4-(pyridin-4-yl)phenyl)amino)pyrimidin-2-yl)amino)benzonitrile], in that order: 260 ± 6.5 µM, 0.0089 ± 0.0007 µM and 29,634.
Regarding `N#Cc1ccc(Nc2ncc(Cl)c(Nc3c(F)cc(-c4ccncc4)cc3F)n2)cc1` [B21, 4-((5-Chloro-4-((2,6-difluoro-4-(pyridin-4-yl)phenyl)amino)pyrimidin-2-yl)amino)benzonitrile], the CC50 in the series “in vitro” is 1.3 ± 0.3 µM. Moreover, in the series with HIV-1 (IIIB), the EC50 turned out to be 0.002 ± 0.0007 µM and the “SI (IIIB)” value came to 680.
For `N#Cc1ccc(Nc2ncc(F)c(Nc3ccc(-c4ccncc4)cc3F)n2)cc1` [A19, 4-((5-Fluoro-4-((2-fluoro-4-(pyridin-4-yl)phenyl)amino)pyrimidin-2-yl)amino)benzonitrile], in that order: over 50 µM, 0.018 ± 0.014 µM and over 2765.
